Our source for the EC50 values is patent US11078170B2 (Assembly Biosciences, Inc., priority 2017, dated 2021).

A word on the EC50: it is the concentration that produces a half-maximal response.

For this assay, the system named is HBV viral production from HepAD38 cells. As to the kind of experiment: Activity of test compounds on viral production from HepAD38 cells (viral load by qPCR of HBV core sequence in supernatant). It counts as cell-based. Particulars: Hepatitis B virus, 120 h, 5 days incubation, HBV DNA in supernatant by qPCR, top concentration 10 μM, read-out: Viral Load EC50 Activity range. In outline: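 HepAD38 cells, 50,000/well in tetracycline-free 2% FBS medium, treated 5 days at 37° C. with compound from 10 μM top concentration. HBV DNA in supernatant quantified by TaqMan qPCR of core sequence against DNA standards, relative to DMSO wells; CellTiter-Glo viability read in parallel. EC50/CC50 from four-parameter logistic fit.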
(In general: Real-time PCR tracks product formation cycle by cycle.)
In the case of `CN1C(C(=O)Nc2ccc(F)c(Cl)c2)CC(c2cccc(O)c2)NS1(=O)=O` (stereo not drawn) [HBV-CSU-205, Cis-N-(3-chloro-4-fluorophenyl)-5-(3-hydroxyphenyl)-2-methyl-1,2,6-thiadiazinane-3-carboxamide 1,1-dioxide], the EC50 was < 1 µM. The value for `CN(C)CCCOc1ccc([C@@H]2C[C@H](C(=O)Nc3ccc(F)c(Cl)c3)N(C)S(=O)(=O)N2)cc1` [HBV-CSU-208-ISO-I, Cis-N-(3-chloro-4-fluorophenyl)-5-(4-(3-(dimethylamino)propoxy)phenyl)-2-methyl-1,2,6-thiadiazinane-3-carboxamide 1,1-dioxide] was > 5 µM; that for `CN(C)CCCOc1ccc([C@H]2C[C@@H](C(=O)Nc3ccc(F)c(Cl)c3)N(C)S(=O)(=O)N2)cc1` [HBV-CSU-208-ISO-II, Cis-N-(3-chloro-4-fluorophenyl)-5-(4-(3-(dimethylamino)propoxy)phenyl)-2-methyl-1,2,6-thiadiazinane-3-carboxamide 1,1-dioxide] was < 1 µM; that for `CN(C)CCCOc1cccc(C2CC(C(=O)Nc3ccc(F)c(Cl)c3)N(C)S(=O)(=O)N2)c1` (stereo not drawn) [HBV-CSU-209, Cis-N-(3-Chloro-4-fluorophenyl)-5-(3-(3-(dimethylamino)propoxy)phenyl)-2-methyl-1,2,6-thiadiazinane-3-carboxamide 1,1-dioxide] was < 1 µM.

As to `COCCN1[C@@H](C(=O)Nc2ccc(F)c(Cl)c2)C[C@@H](c2ccc(F)cc2)NS1(=O)=O` [HBV-CSU-210-ISO-I, Cis-N-(3-Chloro-4-fluorophenyl)-5-(4-fluorophenyl)-2-(2-methoxyethyl)-1,2,6-thiadiazinane-3-carboxamide 1,1-dioxide], the concentration for a half-maximal effect (EC50) was > 5 µM.

Regarding `COCCN1[C@H](C(=O)Nc2ccc(F)c(Cl)c2)C[C@H](c2ccc(F)cc2)NS1(=O)=O` [HBV-CSU-210-ISO-II, Cis-N-(3-Chloro-4-fluorophenyl)-5-(4-fluorophenyl)-2-(2-methoxyethyl)-1,2,6-thiadiazinane-3-carboxamide 1,1-dioxide], the EC50 was < 1 µM. Take `CN1[C@H](C(=O)Nc2ccc(F)c(Br)c2)C[C@H](c2ccc(F)cc2)NS1(=O)=O` [HBV-CSU-211-ISO-I, Cis-N-(3-Bromo-4-fluorophenyl)-5-(4-fluorophenyl)-2-methyl-1,2,6-thiadiazinane-3-carboxamide 1,1-dioxide]: the EC50 was < 1 µM.

For `CN1[C@@H](C(=O)Nc2ccc(F)c(Br)c2)C[C@@H](c2ccc(F)cc2)NS1(=O)=O` [HBV-CSU-211-ISO-II, Cis-N-(3-Bromo-4-fluorophenyl)-5-(4-fluorophenyl)-2-methyl-1,2,6-thiadiazinane-3-carboxamide 1,1-dioxide], the EC50 is > 5 µM. To `CN1[C@H](C(=O)Nc2cc(F)c(F)c(F)c2)C[C@H](c2ccc(F)cc2)NS1(=O)=O` [HBV-CSU-212-ISO-I, Cis-5-(4-Fluorophenyl)-2-methyl-N-(3,4,5-trifluorophenyl)-1,2,6-thiadiazinane-3-carboxamide 1,1-dioxide] belongs < 1 µM; to `CN1[C@@H](C(=O)Nc2cc(F)c(F)c(F)c2)C[C@@H](c2ccc(F)cc2)NS1(=O)=O` [HBV-CSU-212-ISO-II, Cis-5-(4-Fluorophenyl)-2-methyl-N-(3,4,5-trifluorophenyl)-1,2,6-thiadiazinane-3-carboxamide 1,1-dioxide], > 5 µM; to `CN1[C@@H](C(=O)Nc2ccc(F)c(Cl)c2)C[C@@H](c2ccc(C(N)=O)cc2)NS1(=O)=O` [HBV-CSU-214-ISO-I, Cis-5-(4-Carbamoylphenyl)-N-(3-chloro-4-fluorophenyl)-2-methyl-1,2,6-thiadiazinane-3-carboxamide 1,1-dioxide], > 5 µM. As to `CN1[C@H](C(=O)Nc2ccc(F)c(Cl)c2)C[C@H](c2ccc(C(N)=O)cc2)NS1(=O)=O` [HBV-CSU-214-ISO-II, Cis-5-(4-Carbamoylphenyl)-N-(3-chloro-4-fluorophenyl)-2-methyl-1,2,6-thiadiazinane-3-carboxamide 1,1-dioxide], the EC50 is < 1 µM.

Regarding `COc1ccccc1C1CC(C(=O)Nc2ccc(F)c(Cl)c2)N(C)S(=O)(=O)N1` (stereo not drawn) [HBV-CSU-215], the EC50 is 1 to 5 µM. Consider `CN1[C@@H](C(=O)Nc2ccc(F)c(Cl)c2)C[C@@H](c2ccc(OCC(=O)O)cc2)NS1(=O)=O` [HBV-CSU-216-ISO-II, Cis-2-(4-(5-((3-Chloro-4-fluorophenyl)carbamoyl)-6-methyl-1,1-dioxido-1,2,6-thiadiazinan-3-yl)phenoxy)acetic acid], for which the EC50 was > 5 µM. As for `CN1[C@H](C(=O)Nc2ccc(F)c(Cl)c2)C[C@H](c2ccc(C(=O)O)cc2)NS1(=O)=O` [HBV-CSU-218-ISO-I, Cis-4-(5-((3-Chloro-4-fluorophenyl)carbamoyl)-6-methyl-1,1-dioxido-1,2,6-thiadiazinan-3-yl)benzoic acid], the EC50 is > 5 µM. The value for `CN1[C@@H](C(=O)Nc2ccc(F)c(Cl)c2)C[C@@H](c2ccc(C(=O)O)cc2)NS1(=O)=O` [HBV-CSU-218-ISO-II, Cis-4-(5-((3-Chloro-4-fluorophenyl)carbamoyl)-6-methyl-1,1-dioxido-1,2,6-thiadiazinan-3-yl)benzoic acid] was 1 to 5 µM; that for `CN1C(C(=O)Nc2ccc(F)c(Cl)c2)CC(c2ccc(O)c(Cl)c2)NS1(=O)=O` (stereo not drawn) [HBV-CSU-220, Cis-N-(3-chloro-4-fluorophenyl)-5-(3-chloro-4-hydroxyphenyl)-2-methyl-1,2,6-thiadiazinane-3-carboxamide 1,1-dioxide] was < 1 µM. The value for `CN1[C@H](C(=O)Nc2ccc(F)c(Cl)c2)C[C@H](C2CCCC2)NS1(=O)=O` [HBV-CSU-222-ISO-I, Cis-N-(3-chloro-4-fluorophenyl)-5-cyclopentyl-2-methyl-1,2,6-thiadiazinane-3-carboxamide 1,1-dioxide] was < 1 µM. To `CN1[C@@H](C(=O)Nc2ccc(F)c(Cl)c2)C[C@@H](C2CCCC2)NS1(=O)=O` [HBV-CSU-222-ISO-II, Cis-N-(3-chloro-4-fluorophenyl)-5-cyclopentyl-2-methyl-1,2,6-thiadiazinane-3-carboxamide 1,1-dioxide] belongs 1 to 5 µM; to `Cc1ncc([C@H]2C[C@@H](C(=O)Nc3ccc(F)c(Cl)c3)N(C)S(=O)(=O)N2)s1` [HBV-CSU-224-ISO-I, Cis-N-(3-Chloro-4-fluorophenyl)-2-methyl-5-(2-methylthiazol-5-yl)-1,2,6-thiadiazinane-3-carboxamide 1,1-dioxide], < 1 µM; to `Cc1ncc([C@@H]2C[C@H](C(=O)Nc3ccc(F)c(Cl)c3)N(C)S(=O)(=O)N2)s1` [HBV-CSU-224-ISO-II, Cis-N-(3-Chloro-4-fluorophenyl)-2-methyl-5-(2-methylthiazol-5-yl)-1,2,6-thiadiazinane-3-carboxamide 1,1-dioxide], > 5 µM. In the case of `CN1C(C(=O)Nc2ccc(F)c(Cl)c2)CC(c2cnc(C(F)(F)F)s2)NS1(=O)=O` (stereo not drawn) [HBV-CSU-226, Cis-N-(3-chloro-4-fluorophenyl)-2-methyl-5-(2-(trifluoromethyl)thiazol-5-yl)-1,2,6-thiadiazinane-3-carboxamide 1,1-dioxide], the EC50 lay in the range of 1 to 5 µM.

As for `CN1[C@H](C(=O)Nc2ccc(F)c(Cl)c2)C[C@H](c2ccc(F)c(F)c2)NS1(=O)=O` [HBV-CSU-230-ISO-I, Cis-N-(3-Chloro-4-fluorophenyl)-5-(3,4-difluorophenyl)-2-methyl-1,2,6-thiadiazinane-3-carboxamide 1,1-dioxide], the EC50 was < 1 µM. The value for `CN1[C@@H](C(=O)Nc2ccc(F)c(Cl)c2)C[C@@H](c2ccc(F)c(F)c2)NS1(=O)=O` [HBV-CSU-230-ISO-II, Cis-N-(3-Chloro-4-fluorophenyl)-5-(3,4-difluorophenyl)-2-methyl-1,2,6-thiadiazinane-3-carboxamide 1,1-dioxide] was > 5 µM. The value for `CN1[C@@H](C(=O)Nc2ccc(F)c(Cl)c2)C[C@@H](c2cccc(F)c2)NS1(=O)=O` [HBV-CSU-231-ISO-II, Cis-N-(3-Chloro-4-fluorophenyl)-5-(3-fluorophenyl)-2-methyl-1,2,6-thiadiazinane-3-carboxamide 1,1-dioxide] was > 5 µM; that for `CN1C(C(=O)Nc2ccc(F)c(Cl)c2)CC(c2cnc(-c3ccccc3)s2)NS1(=O)=O` (stereo not drawn) [HBV-CSU-235, N-(3-Chloro-4-fluorophenyl)-2-methyl-5-(2-phenylthiazol-5-yl)-1,2,6-thiadiazinane-3-carboxamide 1,1-dioxide] was < 1 µM. The value for `CN1[C@H](C(=O)Nc2ccc(F)c(Cl)c2)C[C@H](c2cnc(-c3ccccc3)s2)NS1(=O)=O` [HBV-CSU-235-ISO-I, N-(3-Chloro-4-fluorophenyl)-2-methyl-5-(2-phenylthiazol-5-yl)-1,2,6-thiadiazinane-3-carboxamide 1,1-dioxide] was < 1 µM. Take `CN1[C@@H](C(=O)Nc2ccc(F)c(Cl)c2)C[C@@H](c2cnc(-c3ccccc3)s2)NS1(=O)=O` [HBV-CSU-235-ISO-II, N-(3-Chloro-4-fluorophenyl)-2-methyl-5-(2-phenylthiazol-5-yl)-1,2,6-thiadiazinane-3-carboxamide 1,1-dioxide]: the EC50 is > 5 µM. The value for `CN1[C@@H](C(=O)Nc2ccc(F)c(Cl)c2)C[C@@H](c2ccc(-c3ccc(F)cc3)s2)NS1(=O)=O` [HBV-CSU-238-ISO-II] was 1 to 5 µM; that for `CN1[C@H](C(=O)Nc2ccc(F)c(Cl)c2)C[C@H](c2ccc(-c3ccc(F)cc3)s2)NS1(=O)=O` [HBV-CSU-238-ISO-I] was < 1 µM; that for `CN1C(C(=O)Nc2ccc(F)c(Cl)c2)CC(c2ccc(-c3ccc(F)cc3)s2)NS1(=O)=O` (stereo not drawn) [HBV-CSU-238] was < 1 µM. For the compound `CN1[C@@H](C(=O)Nc2ccc(F)c(Cl)c2)C[C@@H](c2cc(-c3ccc(F)cc3)cs2)NS1(=O)=O` [HBV-CSU-239-ISO-II], the EC50 lay within 1 to 5 µM. To `CN1[C@H](C(=O)Nc2ccc(F)c(Cl)c2)C[C@H](c2cc(-c3ccc(F)cc3)cs2)NS1(=O)=O` [HBV-CSU-239-ISO-I] belongs < 1 µM.
